Assay results as given in patent US7309718B2, “Dibenzocycloheptene compound” (UBE Industries, Ltd., priority 2001, dated 2007).
Like-named read-outs stand apart in the source and are kept apart here.

Experiments:
[1] = system: Leukotriene D4 (LTD4) induced respiratory constriction; assay: Leukotriene D4 induced respiratory constriction test; type: in vivo, guinea pig; conditions: Cavia porcellus, po, read-out: LTD4 inhibitory activity
Protocol: Leukotriene D4 Induced Respiratory Constriction Test
Respiratory constriction was measured by modifying the method of Konzett and Rossler (Arch. Exp. Pathol. Pharmakol., 195, pp. 71-74 (1940)). Hartley male guinea pigs (400 to 500 g body weight, Japan SLC Inc.) were anesthetized with pentobarbital (50 mg/kg, s.c.), and a cannula was inserted into the trachea to carry out artificial ventilation with an artificial ventilator (manufactured by Harvard Apparatus, Model 683). An inner pressure of the respiratory tract was measured by a differential pressure transducer (Nihon Kohden, TP-603T) connected to the respiratory cannula and it is used as an index of respiratory constriction.
LTD4 (0.03, 0.06, 0.13, 0.25, 0.5, 1 and 2 μg/kg, Simga-Aldrich) was intravenously administered from a cannula inserted into the right jugular vein from a low dose with an interval of 5 minutes to cause a respiratory constricttion reaction and an increased amount of a respiratory inner pressure was measured. Test compound was suspended in 0.5% sodium carboxymethyl cellulose aqueous solution or dissolved in 30% propylene glycol aqueous solution, and orally administered 24 hours before administration of LTD4. Animals were fasted for 24 hours before administration of the Test compound. […] LTD4 inhibitory activity=(Dose of Compound administered)/{(ED50 of group to which Compound was added)/(ED50 of control group)-1}

[2] = molecular target: T1, Leukotriene D4 (LTD4) receptor (Cavia porcellus, UniProt Q2NNR5); assay: Leukotriene D4 receptor binding test ([3H]LTD4, lung cell membrane fraction); conditions: binding inhibition constant vs 0.2 nM [3H]LTD4, guinea pig lung cell membrane fraction, 25° C. 30 minutes
T1 sequence (Q2NNR5 1-340): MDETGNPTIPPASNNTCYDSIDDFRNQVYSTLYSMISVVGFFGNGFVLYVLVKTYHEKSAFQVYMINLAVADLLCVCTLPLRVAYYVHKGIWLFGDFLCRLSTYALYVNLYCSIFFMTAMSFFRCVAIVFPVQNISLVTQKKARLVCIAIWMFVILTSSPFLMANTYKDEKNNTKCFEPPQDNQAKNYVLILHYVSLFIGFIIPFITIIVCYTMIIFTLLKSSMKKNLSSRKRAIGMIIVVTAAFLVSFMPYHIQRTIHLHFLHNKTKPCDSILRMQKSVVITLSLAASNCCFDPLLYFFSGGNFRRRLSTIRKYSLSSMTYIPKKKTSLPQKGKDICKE
Protocol: Leukotriene D4 Receptor Binding Test
<Preparation of Receptor Sample>
As a receptor sample, a lung cell membrane fraction from guinea pigs was used. […] Lungs of Hartley male guinea pigs (400 to 500 g body weight, Japan SLC Inc.) were isolated, and perfused with a physiological saline, and then, adding 10 mM of PIPES, 10 mM of MgCl2 and 10 mM of CaCl2 buffer (pH 7.5) to the lung tissue and the mixture was homogenized. This homogenate was centrifuged at 70,000×g for 10 minutes to obtain a membrane fraction.
<Leukotriene D4 Receptor Binding Test>
To 0.42 mg of the receptor sample were added 10 mM of PIPES, 10 mM of MgCl2 and 10 mM of CaCl2 buffer (pH 7.5) to make the total amount of 480 μl, and 10 μl of [^3H] LTD4 (NEN Life Science Products Inc.) and 10 μl of a test compound in dimethylsulfoxide were added to the mixture, and the resulting mixture was incubated at 25° C. for 30 minutes. The mixtures thus incubated were filtered through a glass fiber filter (Whatman International Ltd., GF/C) using cell harvester (Biomedical Research & Development Laboratories, Inc., M-30R). The filter paper was washed with 10 mM of Tris and 100 mM of NaCl buffer (pH 7.5), and 5 ml of a liquid scintillator (nacalai tesque inc., clearsol I) was added thereto, and radioactivity was measured by a liquid scintillation analyzer (Packard Instrument Co., 2000CA). When a dissociation constant (Kd) of LTD4 was to be obtained, [^3H] LTD4 with 0.03 to 0.5 nM was used, and 1 μM of non-radioactive LTD4 was added. When a binding inhibition constant (Ki) of the Test compound is to be measured, [^3H] LTD4 with 0.2 nM was used.

[3] = p.o. 24 h before LTD4 i.v., dose of compound shifting the control LTD4 dose-reaction curve two-times to higher dose, anesthetized guinea pigs

| Molecule | Ki [2] [nM] | ED (2-fold shift of LTD4 dose-response) ([1]; 24 h) [µg/kg] | further results |
| --- | --- | --- | --- |
| O=C([O-])CCSC1c2cc(/C=C/c3ccc4cc(F)c(Cl)cc4n3)ccc2C=Cc2c(Cl)cccc21.[Na+] (stereo not shown) [Example Compound 20, Sodium 3-{[3-[(E)-2-(7-chloro-6-fluoroquinolin-2-yl)ethenyl]-9-chloro-5H-dibenzo[a,d]cyclohepten-5-yl]thio}-propionate] | – | 0.7 | – |
| O=C(O)CCSC1c2ccccc2COc2ccc(OCc3ccc4cc(F)c(Cl)cc4n3)cc21 (stereo not shown) [Compound A, 3-[2-(7-chloro-6-fluoroquinolin-2-yl)methoxy-6,11-dihydrobenz[b,e]oxepin-11-yl]thiopropionic acid, reference compound] | – | – | ED (2-fold shift of LTD4 dose-response) [1, 3]: 25.5 µg/kg |
| O=C([O-])COC1c2cc(/C=C/c3ccc4cc(F)c(Cl)cc4n3)ccc2C=Cc2c(Cl)cccc21.[Na+] (stereo not shown) [Example Compound 19, Sodium [3-[(E)-2-(7-chloro-6-fluoroquinolin-2-yl)ethenyl]-9-chloro-5H-dibenzo[a,d]cyclohepten-5-yl]oxy-acetate] | – | – | ED (2-fold shift of LTD4 dose-response) [1, 3]: 2.43 µg/kg |
| C[C@H](CSC1c2ccccc2C=Cc2ccc(/C=C/c3ccc4cc(F)c(F)cc4n3)cc21)C(=O)[O-].[Na+] (stereo partly shown) | – | – | melting point: 240 to 249 °C |
| Sodium [3-[(E)-2-(7-chloroquinolin-2-yl)ethenyl]-5H-dibenzo[a,d]cyclohepten-5-yl]thioacetate [Example Compound 30] | – | – | pKi [2]: 9.7 |
| O=C([O-])CC1CC1CSC1c2ccccc2C=Cc2ccc(/C=C/c3ccc4cc(F)c(Cl)cc4n3)cc21.[Na+] (stereo not shown) [Example Compound 16, Sodium 3-{[3-[(E)-2-(7-chloro-6-fluoroquinolin-2-yl)ethenyl]-5H-dibenzo[a,d]cyclohepten-5-yl]thiomethyl}-cyclopropaneacetate] | – | 0.79 | – |
| O=C([O-])CCSC1c2ccccc2C=Cc2ccc(/C=C/c3ccc4cc(F)c(Cl)cc4n3)cc21.[Na+] (stereo not shown) [Example Compound 7, Sodium 3-{[3-[(E)-2-(7-chloro-6-fluoroquinolin-2-yl)ethenyl]-5H-dibenzo[a,d]cyclohepten-5-yl]thio}propionate] | 0.2 | 0.85 | melting point: 228 to 238 °C |
| O=C([O-])CCSC1c2ccccc2C=Cc2ccc(/C=C/c3ccc4ccc(Cl)cc4n3)cc21.[Na+] (stereo not shown) [Example Compound 8, Sodium 3-{[3-[(E)-2-(7-chloroquinolin-2-yl)ethenyl]-5H-dibenzo[a,d]cyclohepten-5-yl]thio}propionate] | – | 5.3 | melting point: 193 to 203 °C |
| O=C(O)CCSC1c2cc(/C=C/c3ccc4c(n3)CCCC4)ccc2C=Cc2c1cccc2C(F)(F)F (stereo not shown) [Example Compound 31, Sodium 3-{[3-[(E)-2-(5,6,7,8-tetrahydroquinolin-2-yl)ethenyl]-9-trifluoromethyl-5H-dibenzo[a,d]cyclohepten-5-yl]thio}propionate] | 0.2 | – | – |
| O=C([O-])CCSC1c2ccccc2C=Cc2ccc(/C=C/c3ccc4cc(F)c(F)cc4n3)cc21.[Na+] (stereo not shown) [Example Compound 4, Sodium 3-{[3-[(E)-2-(6,7-difluoroquinolin-2-yl)ethenyl]-5H-dibenzo[a,d]cyclohepten-5-yl]thio}propionate] | 0.2 | 1.91 | melting point: 213 to 216 °C |
| O=C([O-])CCSC1c2cc(/C=C/c3ccc4cc(F)c(Cl)cc4n3)ccc2C=Cc2c1cccc2C(F)(F)F.[Na+] (stereo not shown) [Example Compound 28, Sodium 3-{[3-[(E)-2-(7-chloro-6-fluoroquinolin-2-yl)ethenyl]-9-trifluoromethyl-5H-dibenzo[a,d]cyclohepten-5-yl]thio}propionate] | – | 1.7 | – |
| O=C([O-])CCSC1c2cc(/C=C/c3ccc4cc(F)c(Cl)cc4n3)ccc2C=Cc2c(F)cccc21.[Na+] (stereo not shown) [Example Compound 18, Sodium 3-{[3-[(E)-2-(7-chloro-6-fluoroquinolin-2-yl)ethenyl]-9-fluoro-5H-dibenzo[a,d]cyclohepten-5-yl]thio}-propionate] | – | 1.12 | – |

More lines, main results first:

| Ki [2] [nM] | Molecule | ED (2-fold shift of LTD4 dose-response) ([1]; 24 h) [µg/kg] | further results |
| --- | --- | --- | --- |
| 0.158 | O=C(O)COC1c2cc(/C=C/c3ccc4cc(F)c(Cl)cc4n3)ccc2C=Cc2c(F)cccc21 (stereo not shown) [Example Compound 17, Sodium [3-[(E)-2-(7-chloro-6-fluoroquinolin-2-yl)ethenyl]-9-fluoro-5H-dibenzo[a,d]cyclohepten-5-yl]oxy-acetate] | – | – |
| 0.126 | O=C(O)COC1c2ccccc2C=Cc2ccc(/C=C/c3ccc4cc(F)c(Cl)cc4n3)cc21 (stereo not shown) [Example Compound 11, Sodium [3-[(E)-2-(7-chloro-6-fluoroquinolin-2-yl)ethenyl]-5H-dibenzo[a,d]cyclohepten-5-yl]oxyacetate] | – | – |
| 0.158 | O=C(O)CCSC1c2ccccc2C=Cc2ccc(/C=C/c3ccc4c(n3)CCCC4)cc21 (stereo not shown) [Example Compound 9, Sodium 3-{[3-[(E)-2-(5,6,7,8-tetrahydroquinolin-2-yl)ethenyl]-5H-dibenzo[a,d]cyclohepten-5-yl]thio}propionate] | – | – |
| 0.1 | C[C@H](COC1c2ccccc2C=Cc2ccc(/C=C/c3ccc4cc(F)c(F)cc4n3)cc21)C(=O)[O-].[Na+] (stereo partly drawn) [Example Compound 10, Sodium 3-{[3-[(E)-2-(6,7-difluoroquinolin-2-yl)ethenyl]-5H-dibenzo[a,d]cyclohepten-5-yl]oxy}-2-(R)-methyl-propionate] | – | ED (2-fold shift of LTD4 dose-response) [1, 3]: 9.93 µg/kg |
| 0.251 | O=C(O)COC1c2ccccc2C=Cc2ccc(/C=C/c3ccc4ccc(Cl)cc4n3)cc21 (stereo not shown) [Example Compound 29, Sodium [3-[(E)-2-(7-chloroquinolin-2-yl)ethenyl]-5H-dibenzo[a,d]cyclohepten-5-yl]oxyacetate] | – | – |
| 0.1 | O=C([O-])COC1c2ccccc2C=Cc2ccc(/C=C/c3ccc4cc(F)c(F)cc4n3)cc21.[Na+] (stereo not shown) [Example Compound 3, Sodium [3-[(E)-2-(6,7-difluoroquinolin-2-yl)ethenyl]-5H-dibenzo[a,d]cyclohepten-5-yl]oxyacetate] | – | ED (2-fold shift of LTD4 dose-response) [1, 3]: 4.71 µg/kg; melting point: 213 to 227 °C |
| 0.126 | C[C@H](COC1c2ccccc2C=Cc2ccc(/C=C/c3ccc4cc(F)c(Cl)cc4n3)cc21)C(=O)O (stereo partly drawn) [Example Compound 13, Sodium 3-{[3-[(E)-2-(7-chloro-6-fluoroquinolin-2-yl)ethenyl]-5H-dibenzo[a,d]cyclohepten-5-yl]oxy}-2-(R)-methylpropionate] | – | – |
| 0.2 | O=C(O)CCOC1c2ccccc2C=Cc2ccc(/C=C/c3ccc4cc(F)c(Cl)cc4n3)cc21 (stereo not shown) [Example Compound 12, Sodium 3-{[3-[(E)-2-(7-chloro-6-fluoroquinolin-2-yl)ethenyl]-5H-dibenzo[a,d]cyclohepten-5-yl]oxy}propionate] | – | – |
